Results taken from patent US6436929B1 (Wyeth, priority 1999, dated 2002).
Several values for one entry are separate records, joined by “and”; a condition that tells them apart may be missing. Equal values may be shown once.

Experiments:
Ovulation = Ovulation inhibition; type: in vivo; conditions: Table 1
human PR = target: T1, human PR (Homo sapiens, UniProt P06401); assay: PRE-luciferase assay in CV-1 cells co-transfected with human PR and PRE-luciferase plasmids; type: cell-based; conditions: agonist mode, PRE-luciferase in CV-1 cells, Table 1; read-out: hPR CV-1 EC50
T1 construct: expressed in transfected cells; host or cells: CV-1 cells (electroporation with pLEM-hPR-B and pGL3-2xPRE-luciferase)
T1 sequence (P06401 1-933): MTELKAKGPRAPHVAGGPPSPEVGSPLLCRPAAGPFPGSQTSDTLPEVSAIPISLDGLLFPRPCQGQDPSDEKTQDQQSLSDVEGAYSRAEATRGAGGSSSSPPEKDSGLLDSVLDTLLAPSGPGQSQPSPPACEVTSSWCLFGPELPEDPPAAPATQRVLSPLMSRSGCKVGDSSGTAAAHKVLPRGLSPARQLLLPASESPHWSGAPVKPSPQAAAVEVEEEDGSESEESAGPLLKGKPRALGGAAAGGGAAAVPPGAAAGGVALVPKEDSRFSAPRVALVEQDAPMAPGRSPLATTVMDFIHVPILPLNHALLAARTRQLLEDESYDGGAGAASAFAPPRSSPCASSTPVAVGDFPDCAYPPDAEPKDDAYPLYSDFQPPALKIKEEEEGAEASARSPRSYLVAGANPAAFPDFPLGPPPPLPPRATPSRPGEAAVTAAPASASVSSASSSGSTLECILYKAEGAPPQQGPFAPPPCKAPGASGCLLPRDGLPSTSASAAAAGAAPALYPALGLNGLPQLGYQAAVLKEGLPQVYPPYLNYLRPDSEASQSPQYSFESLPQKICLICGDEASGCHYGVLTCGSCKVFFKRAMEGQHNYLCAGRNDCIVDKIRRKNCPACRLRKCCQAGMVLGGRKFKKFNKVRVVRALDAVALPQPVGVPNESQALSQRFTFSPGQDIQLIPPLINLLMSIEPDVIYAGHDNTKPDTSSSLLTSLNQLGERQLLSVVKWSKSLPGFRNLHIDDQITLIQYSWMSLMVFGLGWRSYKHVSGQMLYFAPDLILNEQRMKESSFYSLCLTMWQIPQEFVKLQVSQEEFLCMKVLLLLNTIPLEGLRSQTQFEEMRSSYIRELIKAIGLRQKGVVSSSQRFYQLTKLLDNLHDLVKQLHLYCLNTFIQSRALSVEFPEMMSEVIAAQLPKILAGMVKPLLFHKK
Protocol: The object of this assay is to determine a compound's progestational or antiprogestational potency based on its effect on PRE-luciferase reporter activity in CV-1 cells co-transfected with human PR and PRE-luciferase plasmids. The materials methods used in the assay are as follows.
Electroporation is carried out at 260 V and […] in a Biorad Gene Pulser II. After electroporation, cells are resuspended in growth medium and plated in 96-well plate at 40,000 cells/well in 200 μl. Following overnight incubation, the medium is changed to experimental medium Cells are then treated with reference or test compounds in experimental medium. […] Twenty-four hr. after treatment, the medium is discarded, cells are washed three times with D-PBS (GIBCO, BRL). Fifty μl of cell lysis buffer (Promega, Madison, Wis.) is added to each well and the plates are shaken for 15 min in a Titer Plate Shaker (Lab Line Instrument, Inc.).
Each treatment consists of at least 4 replicates. Log transformed data are used for analysis of variance and nonlinear dose response curve fitting for both agonist and antagonist modes. Huber weighting is used to downweight the effects of outliers. EC50 or IC50 values are calculated from the retransformed values.

[1] = test system: rat uterine decidualization; assay: Rat decidualization assay; type: in vivo; conditions: s.c.; for Estimated average EC50: average over dose-response curves; for EC50: ovariectomized rats, uterine wet weight/decidual response, individual studies (Exp)
Protocol: The animals are treated once daily for seven days.
Uteri are removed and trimmed of fat.
Decidual response: [(D−C)/C]×100%

T47D cells = assay: T47D cell proliferation assay (BrdU incorporation); type: cell-based; conditions: half-maximal increase in BrdU incorporation, individual studies (Exp)
Protocol: The objective of this assay is the determination of progestational and antiprogestational potency by using a cell proliferation assay in T47D cells. A compound's effect on DNA synthesis in T47D cells is measured.
DMEM:F12(1:1) (GIBCO, BRL) supplemented with 10% (v/v) fetal bovine serum (not heat-inactivated), 100 U/ml penicillin, […], and 2 mM GlutaMax (GIBCO, BRL).
Minimum Essential Medium (MEM) (#51200-038GIBCO, BRL) phenol red-free supplemented with 0.5% charcoal stripped fetal bovine serum, 100 U/ml penicillin, […] streptomycin, and 2 mM GlutaMax (GIBCO, BRL). […]
At the end of BrdU labeling, the medium is removed and BrdU incorporation is measured using a cell proliferation ELISA kit (#RPN 250, Amersham Life Science) according to manufacturer's instructions. […] Then 25 μl of 1 M sulfuric acid is added to each well to stop color reaction and optical density is read in a plate reader at 450 nm within 5 min.
Square root-transformed data are used for analysis of variance and nonlinear dose response curve fitting for both agonist and antagonist modes. […] EC50 or IC50 values are calculated from the retransformed values. […]

## CC1(C)OC(=S)Nc2ccc(-c3csc(C#N)c3)cc21 [Compound 2, 4-(4,4-Dimethyl-2-thioxo-1,4-dihydro-2H-benzo[d][1,3]oxazin-6-yl)-thiophene-2-carbonitrile]
other
  melting point: 242 to 243 °C
Ovulation
  Ovulation Inhibition ED100: 1 mg/kg
Human PR
  EC50: 0.3 nM

## C#C[C@]1(O)CC[C@H]2[C@@H]3CCC4=CC(=O)CC[C@@H]4[C@H]3CC[C@@]21CC [Levonorgestrel]
[1]
  Estimated average EC50: 0.10 mg/kg
  EC50: 0.08 mg/kg and 0.12 mg/kg and 0.09 mg/kg (2×)

## CC1(C)OC(=S)Nc2ccc(-c3cc(F)cc(C#N)c3)cc21 [Compound 3, 3-(4,4-Dimethyl-2-thioxo-1,4-dihydro-2H-benzo[d][1,3]oxazin-6-yl)-5-fluorobenzonitrile]
Human PR
  EC50: 5.1 nM

## N#Cc1cccc(-c2ccc3c(c2)C2(CCCCC2)OC(=S)N3)c1 [Example 58, 3(1,2-Dihydro-2-thioxospiro[4H-3,1-benzoxazine4,1-cyclohexan]-6-yl)benzonitrile]
other
  melting point: 222 to 224 °C

## CC1(C)OC(=S)Nc2ccc(-c3ccccc3Cl)cc21 [Example 53, 6-(2-Chlorophenyl)-4,4-dimethyl-1,4-dihydro-2H-3,1-benzoxazine-2-thione]
other
  melting point: 171 to 172 °C

## Cc1cc(C#N)sc1-c1ccc2c(c1)C1(CCCCC1)OC(=S)N2 [Example 59, 5-(1,2-Dihydro-2-thioxospiro [4H-3,1-benzoxazine-4,1-cyclohexan]-6-yl)-4-methyl-2-thiophenecarbonitrile]
other
  melting point: 199 to 201 °C

## CC1(C)OC(=S)Nc2ccc(-c3cc(Cl)cc(Cl)c3)cc21 [Example 32, 6-(3,5-Dichlorophenyl)-4,4-dimethyl-1,4-dihydro-2H-3,1-benzoxazine-2-thione]
other
  melting point: 206 to 208 °C

## CC1(C)OC(=S)Nc2ccc(-c3cccc(Cl)c3)cc21 [Compound 1, 6-(3-Chlorophenyl)-4,4-dimethyl-1,4-dihydro-benzo[d][1,3]oxazin-2-thione]
other
  melting point: 183 to 184 °C
Human PR
  EC50: 0.65 nM

## CC1(C)OC(=S)Nc2ccc(-c3cc(C#N)cs3)cc21 [Example 22, 5-(4,4-Dimethyl-2-thioxo-1,4-dihydro-2H-benzo[d][1,3]oxazin-6-yl)thiophene-3-carbonitrile]
other
  melting point: 258 to 259 °C

## CCC1(CC)OC(=S)Nc2ccc(-c3cccc([N+](=O)[O-])c3)cc21 [Example 35, 4,4Diethyl-6-(3-nitrophenyl)-1,4-dihydro-2H-3,1-benzoxazine2-thione]
other
  melting point: 180 to 181 °C

## N#Cc1cc(-c2ccc3c(c2)C2(CCCCC2)OC(=S)N3)cs1 [Example 23, 4-(1,2-Dihydro-2-thioxospiro[4H-3,1-benzoxazin-4,1-cyclohexan]-6-yl)-2-thiophenecarbonitrile]
other
  melting point: 225 to 227 °C

## CC1OC(=S)Nc2ccc(-c3cccc(F)c3)cc21 (stereo not shown) [Example 15, 6-(3-fluorophenyl)-4-methyl-1,4-dihydro-2H-3,1-benzoxazine-2-thione]
other
  melting point: 173 to 174 °C

## C[C@H](O)C(=O)[C@@]1(C)CC[C@H]2[C@@H]3CCC4=CC(=O)CCC4=C3CC[C@@]21C [Trimegestone]
T47D cells
  EC50: 0.017 nM and 0.014 nM and 0.019 nM

## CC1(C)OC(=S)Nc2ccc(-c3cccc(F)c3)cc21 [Example 42, 6-(3-Fluorophenyl)-4,4-dimethyl-1,4-dihydro-2H-3,1-benzoxazine-2-thione]
other
  melting point: 194 to 195 °C

## CC1(C)OC(=S)Nc2ccc(-c3ccc(F)c(F)c3)cc21 [Example 45, 6-(3,4-Difluorophenyl)-4,4-dimethyl-1,4-dihydro-2H-3,1-benzoxazine-2-thione]
other
  melting point: 209 to 211 °C

## CC(=O)O[C@]1(C(C)=O)CC[C@H]2[C@@H]3C[C@H](C)C4=CC(=O)CC[C@]4(C)[C@H]3CC[C@@]21C [MPA, medroxyprogesterone acetate]
T47D cells; Homo sapiens, T47D
  EC50: 0.019 nM

## CC1(C)OC(=S)Nc2ccc(-c3cc(F)cc(Br)c3)cc21 [Example 55, 6-(3-Bromo-5-fluorophenyl)-4,4-dimethyl-1,4-dihydro-2H-3,1-benzoxazine-2-thione]
other
  melting point: 221 to 222 °C

## C#C[C@]1(O)CC[C@H]2[C@@H]3CCC4=CC(=O)CC[C@@H]4[C@H]3C(=C)C[C@@]21CC [3-Ketodesogestrel]
[1]
  Estimated average EC50: 0.10 mg/kg
  EC50: 0.10 mg/kg and 0.06 mg/kg and 0.11 mg/kg

## CC1(C)OC(=S)Nc2ccc(-c3coc(C#N)c3)cc21 [Example 63, 4-(4,4-Dimethyl-2-thioxo-1,4-dihydro-2H-3,1-benzoxazin-6-yl)-2-furonitrile]
other
  melting point: 214 to 216 °C

## CC1(C)OC(=S)Nc2ccc(-c3ccc(C#N)o3)cc21 [Example 34, 5-(4,4-Dimethyl-2-thioxo-1,4-dihydro-2H-3,1-benzoxazin-6-yl)-2-furonitrile]
other
  melting point: 200 °C (dec.)
